ChEMBL document CHEMBL1134877, “Design, synthesis and biological activity of carbohydrate-containing peptidomimetics as new ligands for the human tachykinin NK-2 receptor” (Bioorg Med Chem Lett, 2002)

Columns and labels:
Substance-K receptor = target: T1, Substance-K receptor (Homo sapiens, UniProt P21452); assay: Displacement of [125I]NKA from human Tachykinin receptor 2 expressed in CHO cells; assay type: cell-based
T1 sequence (P21452 whole entry): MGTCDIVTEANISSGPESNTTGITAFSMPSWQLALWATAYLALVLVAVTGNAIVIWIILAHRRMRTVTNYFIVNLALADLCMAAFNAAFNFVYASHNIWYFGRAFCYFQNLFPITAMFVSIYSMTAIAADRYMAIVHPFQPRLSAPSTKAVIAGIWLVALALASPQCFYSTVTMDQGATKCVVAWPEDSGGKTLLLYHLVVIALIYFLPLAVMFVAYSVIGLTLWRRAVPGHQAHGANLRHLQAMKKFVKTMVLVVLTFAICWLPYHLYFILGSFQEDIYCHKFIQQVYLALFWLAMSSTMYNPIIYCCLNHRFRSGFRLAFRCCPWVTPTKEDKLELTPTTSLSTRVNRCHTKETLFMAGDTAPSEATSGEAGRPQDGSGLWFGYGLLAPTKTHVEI

Oryctolagus cuniculus = species: Oryctolagus cuniculus; assay: Antagonist activity on isolated endothelium-deprived rabbit pulmonary artery preparations when evaluated against a contractile concentration response curve to NKA; assay type: functional

SMILES: CCOC(=O)C1=C(C)OC2OC(CO)C(OCc3ccccc3)C(O)C2[S+]1[O-] (stereo not given)
- Ki (Substance-K receptor): > 10 µM

SMILES: CCOC(=O)C1=C(C)OC2OC(COCc3ccccc3)C(O)C(OCc3ccccc3)C2[S+]1[O-] (stereo not given)
- Ki (Substance-K receptor): > 10 µM

SMILES: CCOC(=O)C1=C(C)OC2OC(COCc3ccccc3)C(OCc3ccccc3)C(OCc3ccccc3)C2[S+]1[O-] (stereo not given)
- pKB (Oryctolagus cuniculus): 6
- Ki (Substance-K receptor): 0.25 µM

SMILES: O=C(C1=C(c2ccccc2)OC2OC(COCc3ccccc3)C(OCc3ccccc3)C(OCc3ccccc3)C2[S+]1[O-])c1ccccc1 (stereo not given)
- Ki (Substance-K receptor): 0.79 µM

SMILES: O=C(C1=C(c2ccccc2)OC2OC(COCc3ccccc3)C(OCc3ccccc3)C(OCc3ccccc3)C2S1)c1ccccc1 (stereo not given)
- Ki (Substance-K receptor): > 10 µM

SMILES: CCOC(=O)C1=C(C)OC2OC(COCc3ccccc3)C(OCc3ccccc3)C(OCc3ccccc3)C2S1 (stereo not given)
- Ki (Substance-K receptor): 12.6 µM

SMILES: CC1=C(C(=O)Oc2ccccc2)[S+]([O-])C2C(O1)OC(COCc1ccccc1)C(OCc1ccccc1)C2OCc1ccccc1 (stereo not given)
- Ki (Substance-K receptor): 0.4 µM

SMILES: CC1=C(C(=O)Oc2ccccc2)SC2C(O1)OC(COCc1ccccc1)C(OCc1ccccc1)C2OCc1ccccc1 (stereo not given)
- Ki (Substance-K receptor): > 10 µM

SMILES: CCOC(=O)C1=C(C)OC2OC(COCc3ccccc3)C(OCc3ccccc3)C(O)C2[S+]1[O-] (stereo not given)
- Ki (Substance-K receptor): 0.79 µM

SMILES: O=C(C1=C(c2ccccc2)OC2OC(COCc3ccccc3)C(OCc3ccccc3)C(OCc3ccccc3)C2S1(=O)=O)c1ccccc1 (stereo not given)
- Ki (Substance-K receptor): 5.01 µM

SMILES: CCOC(=O)C1=C(C)OC2OC(COCc3ccccc3)C(OCc3ccccc3)C(O)C2S1 (stereo not given)
- Ki (Substance-K receptor): 12.6 µM

SMILES: CCOC(=O)C1=C(C)OC2OC(CO)C(OCc3ccccc3)C(OCc3ccccc3)C2S1 (stereo not given)
- Ki (Substance-K receptor): 4 µM

SMILES: CCOC(=O)C1=C(C)OC2OC(CO)C(OCc3ccccc3)C(OCc3ccccc3)C2[S+]1[O-] (stereo not given)
- Ki (Substance-K receptor): 4 µM

SMILES: CCOC(=O)C1=C(C)OC2OC(CO)C(OCc3ccccc3)C(O)C2S1 (stereo not given)
- Ki (Substance-K receptor): > 10 µM
